# Laboratory results as given in US6638973B2, “Taxane formulations” (FSU Research Foundation, Inc., priority 2000, dated 2003).
# System: HCT116 cells
# Assay: In vitro cytotoxicity measured by the cell colony formation assay
# Type: cell-based
# Settings: HCT116 cells, 72 h incubation with drug, colonies counted after 7 days; ID50 = drug concentration producing 50% inhibition of colony formation; read-out: IN VITRO ID 50 (nm) HCT116
# In short: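 Colony-forming survival was scored 7 days after a 72 h, 37 °C compound exposure followed by washout into fresh medium.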
row,Compound,IC50 [nM]
1,COC(=O)O[C@H]1C(=O)[C@@]2(C)C([C@H](OC(=O)c3ccccc3)[C@]3(O)C[C@H](OC(=O)[C@H](O)[C@@H](NC(=O)OC(C)(C)C)c4cccnc4)C(C)=C1C3(C)C)[C@]1(OC(C)=O)CO[C@@H]1C[C@@H]2O (stereo partly shown) [Compound 2011],< 10
2,COC(=O)O[C@H]1C[C@H]2OC[C@@]2(OC(C)=O)C2[C@H](OC(=O)c3ccccc3)[C@]3(O)C[C@H](OC(=O)[C@H](O)[C@@H](NC(=O)OCC(C)C)c4ccoc4)C(C)=C([C@@H](O)C(=O)[C@@]21C)C3(C)C (stereo partly shown) [Compound 4584],< 10
3,COC(=O)O[C@H]1C(=O)[C@@]2(C)C([C@H](OC(=O)c3ccccc3)[C@]3(O)C[C@H](OC(=O)[C@H](O)[C@@H](NC(=O)OC(C)(C)C)c4ccccn4)C(C)=C1C3(C)C)[C@]1(OC(C)=O)CO[C@@H]1C[C@@H]2O (stereo partly shown) [Compound 2002],< 1
4,C/C=C/C(=O)N[C@@H](c1ccoc1)[C@@H](O)C(=O)O[C@H]1C[C@@]2(O)[C@@H](OC(=O)c3ccccc3)C3[C@](C)(C(=O)[C@H](O)C(=C1C)C2(C)C)[C@@H](OC(=O)OCC)C[C@H]1OC[C@@]31OC(C)=O (stereo partly shown) [Compound 4904],< 10
5,CCOC(=O)O[C@H]1C[C@H]2OC[C@@]2(OC(C)=O)C2[C@H](OC(=O)c3ccccc3)[C@]3(O)C[C@H](OC(=O)[C@H](O)[C@@H](NC(=O)OCC(C)C)c4ccsc4)C(C)=C([C@@H](O)C(=O)[C@@]21C)C3(C)C (stereo partly shown) [Compound 4979],< 10

# Same assay, conditions: HCT116 cells, colony formation, 72 h incubation with drug, colonies counted after 7 days; ID50 = drug concentration producing 50% inhibition of colony formation; read-out: IN VITRO ID 50 (nm) HCT116
row,Compound,IC50 [nM]
1,CCNC(=O)O[C@H]1C(=O)[C@@]2(C)C([C@H](OC(=O)c3ccccc3)[C@]3(O)C[C@H](OC(=O)[C@H](O)[C@@H](NC(=O)OC(C)(C)C)c4ccccc4)C(C)=C1C3(C)C)[C@]1(OC(C)=O)CO[C@@H]1C[C@@H]2O (stereo partly shown) [Compound 2640],< 1

# Same assay, conditions: HCT116 colony formation; 72 h drug incubation, colonies counted after 7 days; Example 5, C-7 ester/C-10 hydroxy taxanes; read-out: IN VITRO ID 50 (nm) HCT116
row,Compound,IC50 [nM]
1,CCC(=O)O[C@H]1C[C@H]2OC[C@@]2(OC(C)=O)C2[C@H](OC(=O)c3ccccc3)[C@]3(O)C[C@H](OC(=O)[C@H](O)[C@@H](NC(=O)OCC(C)C)c4ccsc4)C(C)=C([C@@H](O)C(=O)[C@@]21C)C3(C)C (stereo partly shown) [Compound 4544],< 10
2,CCC(=O)O[C@H]1C[C@H]2OC[C@@]2(OC(C)=O)C2[C@H](OC(=O)c3ccccc3)[C@]3(O)C[C@H](OC(=O)[C@H](O)[C@@H](NC(=O)OCC(C)C)C4CC4)C(C)=C([C@@H](O)C(=O)[C@@]21C)C3(C)C (stereo partly shown) [Compound 5191],< 10
3,CCC(=O)O[C@H]1C[C@H]2OC[C@@]2(OC(C)=O)C2[C@H](OC(=O)c3ccccc3)[C@]3(O)C[C@H](OC(=O)[C@H](O)[C@@H](NC(=O)c4ccccc4)c4ccsc4)C(C)=C([C@@H](O)C(=O)[C@@]21C)C3(C)C (stereo partly shown) [Compound 3388],< 10
4,CCCC(=O)O[C@H]1C[C@H]2OC[C@@]2(OC(C)=O)C2[C@H](OC(=O)c3ccccc3)[C@]3(O)C[C@H](OC(=O)[C@H](O)[C@@H](NC(=O)OC(C)(C)C)C4CC4)C(C)=C([C@@H](O)C(=O)[C@@]21C)C3(C)C (stereo partly shown) [Compound 5080],< 1
5,"CCC(=O)OC1CC2OCC2(OC(C)=O)C2C(OC(=O)c3ccccc3)C3(O)CC(OC(=O)C(O)C(NC(=O)OC(C)(C)C)c4ccco4)C(C)=C(C(O)C(=O)C12C)C3(C)C (stereo not shown) [Compound 1393, 3′-Desphenyl-3′-(2-furyl)-7-propionyl taxotere]",< 1
6,CCCCC(=O)O[C@H]1C[C@H]2OC[C@@]2(OC(C)=O)C2[C@H](OC(=O)c3ccccc3)[C@]3(O)C[C@H](OC(=O)[C@H](O)[C@@H](NC(=O)OC(C)(C)CC)c4ccco4)C(C)=C([C@@H](O)C(=O)[C@@]21C)C3(C)C (stereo partly shown) [Compound 6343],< 10
7,CCCC(=O)O[C@H]1C[C@H]2OC[C@@]2(OC(C)=O)C2[C@H](OC(=O)c3ccccc3)[C@]3(O)C[C@H](OC(=O)[C@H](O)[C@@H](NC(=O)OC(C)(C)C)c4ccco4)C(C)=C([C@@H](O)C(=O)[C@@]21C)C3(C)C (stereo partly shown) [Compound 4499],< 1
8,CCCC(=O)O[C@H]1C[C@H]2OC[C@@]2(OC(C)=O)C2[C@H](OC(=O)c3ccccc3)[C@]3(O)C[C@H](OC(=O)[C@H](O)[C@@H](NC(=O)c4cccs4)c4cccs4)C(C)=C([C@@H](O)C(=O)[C@@]21C)C3(C)C (stereo partly shown) [Compound 4388],< 1

# Same assay, conditions: HCT116 colony formation; 72 h drug incubation, colonies counted after 7 days; Example 10, C-10 ester/C-7 hydroxy taxanes; read-out: IN VITRO ID 50 (nm) HCT116
row,Compound,IC50 [nM]
1,CC(=O)O[C@@]12CO[C@@H]1C[C@H](O)[C@@]1(C)C(=O)[C@H](OC(=O)C3CC3)C3=C(C)[C@@H](OC(=O)[C@H](O)[C@@H](NC(=O)OC(C)(C)C)c4ccsc4)C[C@@](O)([C@@H](OC(=O)c4ccccc4)C12)C3(C)C (stereo partly shown) [Compound 2794],< 1
2,CC(=O)O[C@@]12CO[C@@H]1C[C@H](O)[C@@]1(C)C(=O)[C@H](OC(=O)C3CC3)C3=C(C)[C@@H](OC(=O)[C@H](O)[C@@H](NC(=O)OC(C)(C)C)c4ccccc4)C[C@@](O)([C@@H](OC(=O)c4ccccc4)C12)C3(C)C (stereo partly shown) [Compound 0882],< 1
3,CCC(=O)O[C@H]1C(=O)[C@@]2(C)C([C@H](OC(=O)c3ccccc3)[C@]3(O)C[C@H](OC(=O)[C@H](O)[C@@H](NC(=O)OC(C)(C)C)c4ccccc4)C(C)=C1C3(C)C)[C@]1(OC(C)=O)CO[C@@H]1C[C@@H]2O (stereo partly shown) [Compound 0611],< 10
4,CCCC(=O)O[C@H]1C(=O)[C@@]2(C)C([C@H](OC(=O)c3ccccc3)[C@]3(O)C[C@H](OC(=O)[C@H](O)[C@@H](NC(=O)OCC(C)C)c4ccoc4)C(C)=C1C3(C)C)[C@]1(OC(C)=O)CO[C@@H]1C[C@@H]2O (stereo partly shown) [Compound 4704],< 10
5,CC(=O)O[C@@]12CO[C@@H]1C[C@H](O)[C@@]1(C)C(=O)[C@H](OC(=O)C3CC3)C3=C(C)[C@@H](OC(=O)[C@H](O)[C@H](C=C(C)C)NC(=O)OCC(C)C)C[C@@](O)([C@@H](OC(=O)c4ccccc4)C12)C3(C)C (stereo partly shown) [Compound 4720],< 10
6,CCCC(=O)O[C@H]1C(=O)[C@@]2(C)C([C@H](OC(=O)c3ccccc3)[C@]3(O)C[C@H](OC(=O)[C@H](O)[C@@H](NC(=O)OC(C)C)c4cccs4)C(C)=C1C3(C)C)[C@]1(OC(C)=O)CO[C@@H]1C[C@@H]2O (stereo partly shown) [Compound 3909],< 1
7,CCC(=O)O[C@H]1C(=O)[C@@]2(C)C([C@H](OC(=O)c3ccccc3)[C@]3(O)C[C@H](OC(=O)[C@H](O)[C@H](C=C(C)C)NC(=O)OC(C)(C)C)C(C)=C1C3(C)C)[C@]1(OC(C)=O)CO[C@@H]1C[C@@H]2O (stereo partly shown) [Compound 0499],< 1
8,CC(=O)O[C@@]12CO[C@@H]1C[C@H](O)[C@@]1(C)C(=O)[C@H](OC(=O)C3CC3)C3=C(C)[C@@H](OC(=O)[C@H](O)[C@@H](NC(=O)OCC(C)C)c4cccs4)C[C@@](O)([C@@H](OC(=O)c4ccccc4)C12)C3(C)C (stereo partly shown) [Compound 3129],< 10
9,CC(=O)O[C@@]12CO[C@@H]1C[C@H](O)[C@@]1(C)C(=O)[C@H](OC(=O)C(C)C)C3=C(C)[C@@H](OC(=O)[C@H](O)[C@@H](NC(=O)OC(C)(C)C)c4ccc([N+](=O)[O-])cc4)C[C@@](O)([C@@H](OC(=O)c4ccccc4)C12)C3(C)C (stereo partly shown) [Compound 2320],< 1

# Same assay, conditions: HCT116 colony formation; 72 h drug incubation, colonies counted after 7 days; Example 15, C-7 substituted acetate/C-10 hydroxy taxanes; read-out: IN VITRO ID 50 (nm) HCT116
row,Compound,IC50 [nM]
1,CCC(C)(C)OC(=O)N[C@@H](c1ccco1)[C@@H](O)C(=O)O[C@H]1C[C@@]2(O)[C@@H](OC(=O)c3ccccc3)C3[C@](C)(C(=O)[C@H](O)C(=C1C)C2(C)C)[C@@H](OC(=O)COC(C)=O)C[C@H]1OC[C@@]31OC(C)=O (stereo partly shown) [Compound 6353],< 1
2,"CCC(C)(C)OC(=O)NC(c1ccco1)C(O)C(=O)OC1CC2(O)C(OC(=O)c3ccccc3)C3C4(OC(C)=O)COC4CC(OC(=O)COC)C3(C)C(=O)C(O)C(=C1C)C2(C)C (stereo not shown) [Compound 6226, N-Debenzoyl-N-tert-amyloxycarbonyl-3′-desphenyl-3′-(2-furyl)-10-deacetyl-7-methoxyacetyl taxol]",< 1
